Among the data in PubChem BioAssay (NCI) are TGI values, retold here.

Each structure is given as a SMILES string.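 Method: 48-hour compound exposure of cells in 96-well plates, five concentrations, linear interpolation of endpoints. At the TGI there is no net growth.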 *1 amine or outer side, *2 acyl side, *3 side chain or, on linkers, in order; H or OH if unused. Where a SMILES comes first, the peptide text is derived from it. Bridges are numbered along the chain shown (N, C = ends). [ ]: non-standard residue; d: D form. The star is where a group is joined. X38 = CC[C@H](C)[C@@H](N[*:1])[C@@H](O)CC(=O)[*:2]; NMeY = CN[C@@H](Cc1ccc(O)cc1)C(=O)O; dNMeL = CN[C@H](CC(C)C)C(=O)O; Hiv = CC(C)[C@H](O)C(=O)O; Pyruvoyl = CC(=O)C(=O)*

Experiment in all cases: DTP human tumour cell line panel, 48 h
For experiment [1], the system named is CCRF-CEM leukemia.
The test system of experiment [2] is BT-549 breast.
The test system of experiment [3] is A498 renal.
The subject of experiment [4] is M14 melanoma.
Experiment [5] concerns KM12 colon.
The test system of experiment [6] is MOLT-4 leukemia.
The test system of experiment [7] is MDA-MB-435.
The subject of experiment [8] is OVCAR-4 ovarian.
Experiment [9] concerns HCT-116 colon.
Experiment [10] has as its system NCI-H23 lung.
Experiment [11] deals with SK-MEL-2 melanoma.
The test system of experiment [12] is 786-0 renal.
Experiment [13] deals with SK-OV-3 ovarian.
The subject of experiment [14] is SR leukemia.
Experiment [15] has as its system UACC-62 melanoma.
The subject of experiment [16] is SNB-19 CNS.
For experiment [17], the system named is SK-MEL-28 melanoma.
Experiment [18] has as its system UACC-257 melanoma.
The subject of experiment [19] is HOP-62 NSCLC.

One may read the TGI as the concentration at which net growth stops. High values mean lower sensitivity of the cells, low ones greater sensitivity of the cells. In the case of `CC1=C(C(=O)Nc2cccc3c2C(=O)NC3=O)CC(C(=O)Nc2cccc3c2C(=O)NC3=O)=C(C)N1`, the TGI in experiment [1], in experiment [2], in experiment [3], in experiment [4], in [5] and in experiment [6] was greater than 100 µM throughout. Besides, the concentration for total growth inhibition (TGI) in experiment [7], in experiment [8], in experiment [9], in [10], in experiment [11] and in experiment [12] was greater than 100 µM throughout. The TGI in [13], in [14], in [15], in experiment [16], in experiment [17] and in [18] was greater than 100 µM in each case. The concentration for total growth inhibition (TGI) in [19] was greater than 100 µM.

For `Cc1nn2c(=O)c([N+](=O)[O-])c(/C=C/c3ccccc3)nc2s1`, the TGI in [1] is 7.65 µM; in experiment [2], 7.86 µM; in [3] it was 59 µM; in experiment [4], greater than 53.9 µM; in [5], 11 µM; in experiment [6] it was 20.8 µM. For the same molecule, the TGI is 5.06 µM in experiment [7]; greater than 100 µM in [8]; 15.4 µM in experiment [9]; greater than 100 µM in experiment [10]; 12.4 µM in experiment [11]; greater than 100 µM in experiment [12]. Moreover, the TGI in [13] is greater than 40.5 µM; in experiment [14], 6.52 µM; in [15], 26.9 µM; in [16], greater than 90.8 µM; in experiment [17], 64.2 µM; in [18], greater than 100 µM. This molecule came in with a TGI in [19] greater than 72 µM.

On to `CC[C@H](C)[C@H]1NC(=O)[C@@H](NC(=O)[C@@H](CC(C)C)N(C)C(=O)[C@@H]2CCCN2C(=O)C(C)=O)[C@@H](C)OC(=O)[C@H](Cc2ccc(OC)cc2)N(C)C(=O)[C@@H]2CCCN2C(=O)[C@H](CC(C)C)NC(=O)[C@H](C(C)C)OC(=O)C[C@@H]1O` (Pyruvoyl-P[dNMeL]T[X38][Hiv]LP[NMeY](Me); ester 3-C), for which the concentration for total growth inhibition (TGI) in [2] came out at 0.0181 µM; in experiment [3], 0.0904 µM; in experiment [4], 0.0261 µM; in experiment [5], 0.151 µM; in [6], 0.0373 µM; in [7], 0.158 µM. For the same molecule, the TGI in [8] stood at 0.351 µM; in experiment [9], 0.12 µM; in experiment [10], 0.0421 µM; in experiment [11], 0.0255 µM; in [12], 0.0397 µM; in [13] it was 0.294 µM. The TGI in experiment [14] stood at 0.607 µM; in experiment [15] it was 0.0299 µM; in experiment [16], 0.721 µM; in [17] it was 0.543 µM; in experiment [18] it was 0.0655 µM; in [19] it was 0.0728 µM.

Regarding `Oc1ccccc1/C=N/Nc1nnc2c3ccccc3c3ccccc3c2n1`, the TGI in [1], in experiment [2], in experiment [3], in experiment [4], in experiment [5] and in experiment [6] was greater than 100 µM each time. Besides, the TGI in experiment [7], in experiment [8], in experiment [9], in experiment [10], in experiment [11] and in experiment [12] was greater than 100 µM each time. For the same molecule, the concentration for total growth inhibition (TGI) was greater than 100 µM in [13]; greater than 100 µM in experiment [14]; greater than 100 µM in [15]; greater than 100 µM in experiment [16]; greater than 100 µM in [17]; 64.7 µM in experiment [18]. In addition, the total growth inhibition concentration (TGI) in experiment [19] was greater than 100 µM.

On to `CC(C)=CCOc1cc(NC(=S)c2ccoc2C)ccc1Cl`, for which the concentration for total growth inhibition (TGI) in experiment [1], in [2], in experiment [3], in [5], in experiment [6] and in experiment [7] was greater than 100 µM each time. In addition, the TGI in experiment [8], in experiment [9], in [10], in [11], in experiment [12] and in [13] was greater than 100 µM in each case. Besides, the TGI in [14], in experiment [15], in experiment [16], in [17], in experiment [18] and in experiment [19] was greater than 100 µM in each case.

For the molecule `COc1cc(S(=O)(=O)Nc2ccc(-c3csc(N4C(=O)CSC4c4cccs4)n3)cc2)ccc1Cl` (centres undefined), the TGI is 95.1 µM in experiment [1]; 70.5 µM in [2]; greater than 100 µM in [3]; greater than 100 µM in experiment [4]; 48.7 µM in experiment [5]; greater than 100 µM in [6]. The TGI was greater than 100 µM in experiment [7]; 82.9 µM in [8]; greater than 100 µM in experiment [9]; greater than 100 µM in [10]; 42.6 µM in experiment [11]; greater than 100 µM in [12]. Besides, the TGI in [13] is greater than 100 µM; in experiment [14], greater than 100 µM; in experiment [16], greater than 100 µM; in experiment [17], 39.5 µM; in experiment [18], 46 µM; in experiment [19], greater than 100 µM.

`C[C@H]1[C@H](C)N(Cc2ccccc2)P(=O)(C(O)/C=C/c2ccccc2)N1Cc1ccccc1` (some centres undefined): the TGI in experiment [2] was greater than 25 µM; in experiment [3], 10.3 µM; in experiment [4] it was 9.05 µM; in experiment [5], greater than 25 µM; in [6], greater than 25 µM; in [7] it was 8.79 µM. The concentration for total growth inhibition (TGI) was 15 µM in [8]; 11.6 µM in experiment [9]; greater than 25 µM in experiment [10]; 9.66 µM in experiment [11]; 10.9 µM in [12]; greater than 25 µM in experiment [13]. Besides, the TGI was 20.5 µM in experiment [14]; 8.13 µM in experiment [15]; greater than 25 µM in [16]; greater than 25 µM in experiment [17]; 14.6 µM in [18]; greater than 25 µM in [19].
